Results published in ChEMBL document CHEMBL1125092, “Nonneurotoxic tetralin and indan analogues of 3,4-(methylenedioxy)amphetamine (MDA)” (J Med Chem, 1990).
pKd: −log10 of the molar value.

Tests used:
Rattus norvegicus [1] = test: Tested for stimulus generation in rats trained to discriminate +/-MDMA from saline at 12.31 (umol/kg),(number of animals = 8); assay type: functional
Rattus norvegicus [2] = test: Tested for stimulus generation in rats trained to discriminate +/-MDMA from saline at 17.44i (umol/kg),(number of animals = 11); assay type: functional
Rattus norvegicus [3] = test: Percentage of animals disrupted in groups of MDMA trained rats at a dose of 8.21 (umol/kg),(number of animals = 9); assay type: functional
Rattus norvegicus [4] = test: Percentage of animals disrupted in groups of MDMA trained rats at a dose of 20.51 (umol/kg),(number of animals = 7); assay type: functional
Rattus norvegicus [5] = test: Percentage of animals disrupted was determined in groups of LSD trained rat at a dose of 6.15 (uM/kg), (no.of animals = 11); assay type: functional
Rattus norvegicus [6] = test: Percentage of animals disrupted was determined in groups of LSD trained rat at a dose of 16.41 (umol/kg),(no. of animals=11); assay type: functional
Rattus norvegicus [7] = test: Tested for stimulus generation in rats trained to discriminate LSD from saline at a dose 8.21 (umol/kg),(number of animals = 8); assay type: functional
Rattus norvegicus [8] = test: Tested for stimulus generation in rats trained to discriminate LSD from saline at 4.10 (umol/kg),(number of animals = 10); assay type: functional
Rattus norvegicus [9] = test: Hallucinogenic property was determined in groups of LSD trained rats and percentage of animals disrupted was reported at a dose 4.10 (umol/kg),(number of animals = 10); assay type: functional
Rattus norvegicus [10] = test: Tested for stimulus generation in rats trained to discriminate +/-MDMA from saline at 16.41(.umol/kg),(number of animals = 11); assay type: functional
Rattus norvegicus [11] = test: Percentage of animals disrupted was determined in groups of LSD trained rat at a dose of 8.21 (umol/kg),(no. of animals = 8); assay type: functional
Rattus norvegicus [12] = test: Tested for stimulus generation in rats trained to discriminate LSD from saline at a dose 6.15 (umol/kg),(number of animals = 11); assay type: functional
Rattus norvegicus [13] = test: Percentage of animals disrupted was determined in groups of LSD trained rat at a dose of 18.46 (umol/kg),(no. of animals=9); assay type: functional
Rattus norvegicus [14] = test: Tested for stimulus generation in rats trained to discriminate +/-MDMA from saline at 8.21 (umol/kg),(number of animals = 9); assay type: functional
Rattus norvegicus [15] = test: Tested for stimulus generation in rats trained to discriminate +/-MDMA from saline at 4.10 (umol/kg),(number of animals = 8); assay type: functional
Rattus norvegicus [16] = test: Percentage of animals disrupted in groups of MDMA trained rats at a dose of 17.44 (umol/kg),(number of animals = 11); assay type: functional
Rattus norvegicus [17] = test: Percentage of animals disrupted in groups of MDMA trained rats at a dose of 16.41 (umol/kg),(number of animals = 11); assay type: functional
Rattus norvegicus [18] = test: Percentage of animals disrupted in groups of MDMA trained rats at a dose of 12.31 (umol/kg),(number of animals = 8); assay type: functional
Rattus norvegicus [19] = test: Tested for stimulus generation in rats trained to discriminate LSD from saline at a 18.46 (umol/kg),(number of animals = 9); assay type: functional
Rattus norvegicus [20] = test: Percentage of animals disrupted in groups of MDMA trained rats at a dose of 4.10 (umol/kg),(number of animals = 8); assay type: functional
Rattus norvegicus [21] = test: Tested for stimulus generation in rats trained to discriminate LSD from saline at a dose 16.41(.umol/kg),(number of animals = 11); assay type: functional
Rattus norvegicus [22] = test: Tested for stimulus generation in rats trained to discriminate LSD from saline at a dose 2.2 (umol/kg), (number of animals = 15); assay type: functional
Rattus norvegicus [23] = test: Hallucinogenic property was determined in groups of MDMA trained rats and percentage of animals disrupted was reported at a dose 4.39 (umol/kg),(number of animals = 9); assay type: functional
Rattus norvegicus [24] = test: Monoamine levels in rat brain were evaluated after subcutaneous administration of 40 mg/kg for HVA; assay type: functional
Rattus norvegicus [25] = test: Hallucinogenic property was determined in groups of LSD trained rats and percentage of animals disrupted was reported at a dose 13.18 (umol/kg),(number of animals = 15); assay type: functional
Rattus norvegicus [26] = test: Tested for stimulus generation in rats trained to discriminate +/-MDMA from saline at 17.57 (umol/kg), (number of animals =11); assay type: functional
Rattus norvegicus [27] = test: Monoamine levels in rat hippocampus were evaluated after subcutaneous administration of 40 mg/kg for 5-HIAA; assay type: functional
Rattus norvegicus [28] = test: Tested for stimulus generation in rats trained to discriminate +/-MDMA from saline at 4.39 (umol/kg),(number of animals = 9); assay type: functional
Rattus norvegicus [29] = test: Tested for stimulus generation in rats trained to discriminate +/-MDMA from saline at 8.78 (umol/kg), (number of animals = 8); assay type: functional
Rattus norvegicus [30] = test: Tested for stimulus generation in rats trained to discriminate +/-MDMA from saline at 2.2 (umol/kg), (number of animals =9); assay type: functional
Rattus norvegicus [31] = test: Tested for stimulus generation in rats trained to discriminate LSD from saline at a dose 8.78 (umol/kg), (number of animals = 16); assay type: functional
Rattus norvegicus [32] = test: Hallucinogenic property was determined in groups of MDMA trained rats and percentage of animals disrupted was reported at a dose 2.2 (umol/kg), (number of animals =9); assay type: functional
Rattus norvegicus [33] = test: Monoamine levels in rat brain were evaluated after subcutaneous administration of 40 mg/kg for 5-HT; assay type: functional
Rattus norvegicus [34] = test: Monoamine levels in rat hippocampus were evaluated after subcutaneous administration of 40 mg/kg for 5-HT; assay type: functional
Rattus norvegicus [35] = test: Hallucinogenic property was determined in groups of LSD trained rats and percentage of animals disrupted was reported at a dose 17.57(umol/kg), (number of animals =21); assay type: functional
Rattus norvegicus [36] = test: Hallucinogenic property was determined in groups of LSD trained rats and percentage of animals disrupted was reported at a dose 8.78 (umol/kg), (number of animals = 16); assay type: functional
Rattus norvegicus [37] = test: Hallucinogenic property was determined in groups of MDMA trained rats and percentage of animals disrupted was reported at a dose 8.78 (umol/kg), (number of animals = 8); assay type: functional
Rattus norvegicus [38] = test: Hallucinogenic property was determined in groups of LSD trained rats and percentage of animals disrupted was reported at 4.39 (umol/kg),(number of animals =11); assay type: functional
Rattus norvegicus [39] = test: Hallucinogenic property was determined in groups of MDMA trained rats and percentage of animals disrupted was reported at a dose 17.57(umol/kg), (number of animals =11); assay type: functional
Rattus norvegicus [40] = test: Monoamine levels in rat brain were evaluated after subcutaneous administration of 40 mg/kg for DOPAC; assay type: functional
Rattus norvegicus [41] = test: Monoamine levels in rat brain were evaluated after subcutaneous administration of 40 mg/kg for DA; assay type: functional
Rattus norvegicus [42] = test: Hallucinogenic property was determined in groups of LSD trained rats and percentage of animals disrupted was reported at a dose 2.2 (umol/kg), (number of animals = 15); assay type: functional
Rattus norvegicus [43] = species: Rattus norvegicus; test: Compounds were evaluated for binding of [3H]paroxetine to rat hippocampal homogenate and number of binding sites (Bmax) for serotonin; assay type: tissue-based; conditions: Hippocampus
Rattus norvegicus [44] = test: Monoamine levels in at hippocampus were evaluated after subcutaneous administration of 40 mg/kg for NE; assay type: functional
Rattus norvegicus [45] = test: Monoamine levels in rat brain were evaluated after subcutaneous administration of 40 mg/kg for NE; assay type: functional
[46] = Binding affinity was determined towards serotonin uptake site in presence of [3H]paroxetine radioligand in rat hippocampal homogenate; assay type: tissue-based, Hippocampus
[47] = Binding affinity was determined towards serotonin uptake site in presence of [3H]paroxetine radioligand in rat brain cortical homogenate; assay type: tissue-based
Rattus norvegicus [48] = test: Monoamine levels in rat brain were evaluated after subcutaneous administration of 40 mg/kg for 5-HIAA; assay type: functional
Rattus norvegicus [49] = species: Rattus norvegicus; test: Compounds were evaluated for binding of [3H]paroxetine to rat brain cortical homogenate and number of binding sites (Bmax) for serotonin; assay type: tissue-based
Rattus norvegicus [50] = test: Tested for stimulus generation in rats trained to discriminate LSD from saline at a dose 4.39 (umol/kg),(number of animals =11); assay type: functional

`COc1cc(C)c(OC)c2c1CC(N)C2` (stereo not given) showed an SDL (Rattus norvegicus [1]) of 25%, an SDL (Rattus norvegicus [2]) of 50% and a D (Rattus norvegicus [3]) of 11%. It also gave a D (Rattus norvegicus [4]) of 71%, a D (Rattus norvegicus [5]) of 27% and a D (Rattus norvegicus [6]) of 27%. For the same compound, the SDL (Rattus norvegicus [7]) was 38%, the SDL (Rattus norvegicus [8]) was 20% and the D (Rattus norvegicus [9]) was 0%. It also gave an SDL (Rattus norvegicus [10]) of 75%, a D (Rattus norvegicus [11]) of 0% and an SDL (Rattus norvegicus [12]) of 38%. The D (Rattus norvegicus [13]) was 0%, the SDL (Rattus norvegicus [14]) was 38% and the SDL (Rattus norvegicus [15]) was 13%. It also gave a D (Rattus norvegicus [16]) of 27%, a D (Rattus norvegicus [17]) of 27% and a D (Rattus norvegicus [18]) of 0%. For the same compound, the SDL (Rattus norvegicus [19]) was 89%, the D (Rattus norvegicus [20]) was 0% and the SDL (Rattus norvegicus [21]) was 63%.

Compound `NC1CCc2cc3c(cc2C1)OCO3` (stereo not given) has an SDL (Rattus norvegicus [22]) of 25%, a D (Rattus norvegicus [23]) of 11% and a Monoamine level (Rattus norvegicus [24]) of 262 pg/mg. For the same compound, the D (Rattus norvegicus [25]) was 67%, the SDL (Rattus norvegicus [26]) was 88% and the Monoamine level (Rattus norvegicus [27]) was 549 pg/mg. For the same compound, the SDL (Rattus norvegicus [28]) was 50%, the SDL (Rattus norvegicus [29]) was 63% and the SDL (Rattus norvegicus [30]) was 13%. For the same compound, the SDL (Rattus norvegicus [31]) was 63%, the D (Rattus norvegicus [32]) was 11% and the Monoamine level (Rattus norvegicus [33]) was 356 pg/mg. It also gave a Monoamine level (Rattus norvegicus [34]) of 256 pg/mg, a D (Rattus norvegicus [35]) of 64% and a D (Rattus norvegicus [36]) of 50%. For the same compound, the D (Rattus norvegicus [37]) was 0%, the D (Rattus norvegicus [38]) was 27% and the D (Rattus norvegicus [39]) was 27%. The Monoamine level (Rattus norvegicus [40]) was 213 pg/mg, the Monoamine level (Rattus norvegicus [41]) was 151 pg/mg and the D (Rattus norvegicus [42]) was 47%. The Bmax (Rattus norvegicus [43]) was 778 fM/g, the Monoamine level (Rattus norvegicus [44]) was 484 pg/mg and the Monoamine level (Rattus norvegicus [45]) was 367 pg/mg. For the same compound, the pKd [46] was 9.93, the pKd [47] was 9.99 and the Monoamine level (Rattus norvegicus [48]) was 370 pg/mg. It also gave a Bmax (Rattus norvegicus [49]) of 964 fM/g and an SDL (Rattus norvegicus [50]) of 38%.
